From patent US10822325B2, “Human GLUT5 specific inhibitors and methods of treatment” (UNM RAINFOREST INNOVATIONS, priority 2015, dated 2020)
“Also recorded” adds a separate entry of the source.

Target: T1, GlcPSe (Staphylococcus epidermidis, UniProt A0A0H2VG78)
T1 construct: made in house; host or cells: Escherichia coli JM1100 (pBAD); right-side-out membrane vesicles
T1 sequence (A0A0H2VG78 1-446): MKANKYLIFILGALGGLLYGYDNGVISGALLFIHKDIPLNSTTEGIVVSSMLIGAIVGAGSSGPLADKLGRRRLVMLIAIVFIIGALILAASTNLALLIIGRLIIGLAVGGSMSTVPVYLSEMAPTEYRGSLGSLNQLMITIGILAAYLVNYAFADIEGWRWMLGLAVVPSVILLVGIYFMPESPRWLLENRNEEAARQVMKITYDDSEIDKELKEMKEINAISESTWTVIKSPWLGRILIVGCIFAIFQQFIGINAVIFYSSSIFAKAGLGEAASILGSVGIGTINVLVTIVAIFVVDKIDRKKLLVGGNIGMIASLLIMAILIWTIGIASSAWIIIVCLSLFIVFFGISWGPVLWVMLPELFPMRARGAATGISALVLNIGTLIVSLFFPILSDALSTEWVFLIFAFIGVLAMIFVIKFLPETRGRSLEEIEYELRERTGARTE
Assay: Glucose uptake by GlcPSe in right-side-out vesicles of JM1100 E. coli cells
Format: biochemical
Settings: 2 mM compound, RSO vesicles, 30 μM C14-glucose, one minute
Protocol: Glucose transport assay for GlcPSe, wild-type and F348H mutant, was performed as described previouslyl^16. GlcPSe was cloned into the pBAD vector (Invitrogen) with C-terminal 6×His tag. F348H mutation was done with the site-directed mutagenesis method^37. GlcPSe proteins were expressed in the glucose transporter deficient Escherichia coli strain JM1100. Cells were grown at 37° C., in Luria Broth medium, with 100 μg/mL ampicillin. Protein expression was induced with 0.3 mM L-arabinose at O.D.600 nm 0.6. After 3 hours, cells were harvested by centrifugation at 2,500 g for 5 min. The right-side-out (RSO) membrane vesicles of JM1100 E. coli cells were prepared as described previouslyl^16,39,40. Transport assay was initiated by the addition of ^14C-radiolabeled glucose (Moravek Biochemicals) to 50 μL RSO vesicles in 100 mM KPi buffer pH 7.5, at O.D.600 nm of 2.0. After one minute, the transport was stopped and the radioactivity was measured as described below. When inhibitors were used, they were incubated with RSO vesicles 1 minute before transport initiation.
Given the partial conservation of the MSNBA binding site in other GLUTs and GlcPSe, we checked whether MSNBA inhibits GLUT1-4 or GlcPSe. Glucose transport of GLUT1, GLUT2, GLUT3 and GLUT4 and fructose transport of GLUT2 were assayed by the entrance counter-flow method in proteoliposomes constructed with the respective recombinant human GLUT produced in insect cells. Glucose transport of GlcPSe was measured in right-side-out (RSO) vesicles of JM1100 E. coli cells (that lack endogenous glucose transport) expressing GlcPSe.

Structure (SMILES)	effect on GlcPSe glucose transport
CS(=O)(=O)c1ccc(Nc2ccc3c(c2)OCO3)c([N+](=O)[O-])c1 [MSNBA, N-[4-(methylsulfonyl)-2-nitrophenyl]-1,3-benzodioxol-5-amine]	did not affect; also recorded: did not influence
C=C1[C@@H](C)[C@H]2[C@H](Cc3ccccc3)NC(=O)[C@]23OC(=O)/C=C/[C@H](O)CCC[C@@H](C)C/C=C/[C@H]3[C@@H]1O [cytochalasin B, reference compound]	inhibited
O=C(CCc1ccc(O)cc1)c1c(O)cc(O)cc1O [phloretin, reference compound]	inhibited
